Laboratory results published in patent US6642365B1, “Anti-(retro)viral conjugates of saccharides and acetamidino or guanidino compounds” (Yeda Research and Development Co. Ltd., priority 2001, dated 2003).

What was measured:
TAR RNA [1] = assay: Gel-shift binding to TAR RNA; parameters: species or system HIV-1; settings: 50% binding; TAR RNA 2 nM
TAR RNA [2] = assay: RNase A footprinting of TAR RNA; assay type: binding, HIV-1; settings: 1 μM TAR, 200 pM RNase A
Procedure: In a typical experiment 10 μl of 5 mM cacodylate buffer pH 6.5, containing 25 mM KCl and 50-100 ng 5′ ^32P-labeled TAR RNA (approximately 0.5-1 μM) were incubated with 200 pM RNase A (Sigma) at room temperature for 10 minutes in the presence of Tat R52 and the conjugates of the invention at various concentrations. In the competition experiments, the mixture was supplemented with 0.5 μg yeast tRNA (Sigma). After the incubation, 10 μl of formamide/bromphenol blue loading buffer was added to the samples. The samples were heated to 80° C. for 2 min and were resolved by electrophoresis on 40 cm×0.8 mm 20% polyacrylamide denaturing gel (7M urea) for 3 hours at 55° C. The results were visualized by a phosphoimager as described above and quantitated using ImageQuant software.
TAR RNA and RNase A concentrations were established by co-titration. To produce a “single-hit” kinetics conditions, 1 μM TAR versus 200 pM RNase A were selected. Tat R52 and AAC concentrations were determined by titration. […] RNase A cleaved TAR RNA in an uneven manner (FIG. 4A., lane 2). The most susceptible regions for cleavage were the single-stranded loop, nucleotides U31-G34 as well as C24 and U25 of the bulge. Strong cleavage was also observed at G21-G41 and A20-U42 pairs (lower stem). Binding of R52 (2-4 μM) caused a weakening of the bands in the upper stem region, (G26-C39, A27-C38, as well as U40) (FIG. 4A., lanes 3, 4). At 4 μM R52, the cleavage at G34 (loop) was enhanced, as well as a certain enhancement of bands A20, G21, U23 and U25 was observed. Remarkably, the band corresponding to the R52-TAR complex still was observed on the gels even after electrophoresis under strongly denaturing conditions. In the presence of R4K (10-20 μM), the upper stem (G26-C29), the lower stem and the bulge (G21-U23, partially C24 and U25) were protected as well as C38, C39 and U40. Cleavage at C19 and A20 of the lower stem and C30, G33 and G34 of the loop was enhanced by 10 μM R4K, whereas with 20 μM R4K the protection of C30, G34 and A20-G21 was observed (FIG. 4A., lanes 5, 6). […] Cleavages at C19-A20 in the lower stem as well as at G30 and G34 in the loop were observed (FIG. 4A., lanes 7, 8). In the presence of GB4K (20 μM) no significant protection was observed.

TAR RNA [3] = assay: Gel-shift binding to TAR RNA; parameters: species or system HIV-1; settings: for CD50: 50% binding; for effect of ten-fold excess of yeast tRNA on complex formation with TAR: ten-fold excess of tRNA (100 ng per lane)
Procedure: (§1) The model Tat peptide (R52: […]) was prepared by the Weizmann Institute Chemical Services and was purified by reverse phase HPLC (C-18) (Lapidot et al., 1995). […] The RNA was transcriptionally labeled with α-^32P UTP, purified on a 12% polyacrylamide/7M urea gel (19:1 acrylamide:bis-acrylamide) and was eluted from the gel by 0.5M ammonium acetate, 10 mM magnesium acetate, 1 mM EDTA and 0.1% SDS. The sample was subjected to phenol extraction and the RNA was precipitated from 70% ethanol. Purified RNA was dissolved in diethyl pyrocarbonate-treated water (DEPC water), its concentration was determined by UV absorption at 260 nm and the specific radioactivity was determined by scintillation counting on a LS 1701 “Bruker” counter.
To study the affinity of the test compounds to TAR, gel-shift and gel-shift inhibition experiments were performed. The binding reaction mixtures (20 μl) contained ^32P-labeled TAR (18-44) RNA oligonucleotide (3-6 nM) and Tat R52 peptide (35-75 nM) in a binding buffer (10 mM Tris-HCl pH 7.5, 70 mM NaCl, 0.2 mM EDTA and 5% glycerol). The reaction mixtures were incubated for 10 minutes on ice and resolved by electrophoresis on a 10% non-denaturing polyacrylamide gel (40:1 acrylamide:bis-acrylamide) at 200V, for 3 h at 4° C. Gels were dried and visualized by autoradiography. Quantitations were obtained by optical densitometry of films. Alternatively, results were visualized by exposing the wet gels to Fuji phosphoimager plates, which were read on a “Storm 820” (Molecular Dynamics) phosphoimager. […]
Binding of aminoglycoside-arginine conjugates (AAC) to TAR RNA was measured by adding varying concentrations of each conjugate to reaction mixtures (20 μl) which contained 12 nM ^32P-labeled TAR RNA. The reactions were analyzed as described above.

TAR RNA [4] = assay: L-arginine-Amberlite affinity column elution of TAR RNA; assay type: binding, HIV-1; settings: concentration that elutes 50% of TAR RNA from L-arginine-Amberlite affinity column
Procedure: as §1
The L-arginine-Amberlite resin was prepared as follows: Carboxyl groups of Amberlite IRC-50 resin were covalently modified with ethanolamine using 1-(3-dimethylaminopropyl) 3-ethylcarbodiimide, a water-soluble coupler. The hydroxy ethyleneamide resin obtained was washed and dried, and L-arginine (12-16 μmols per ml of resin) was coupled to the hydroxy groups of the resin via an isourea moiety using a standard cyanogen bromide protocol. The final concentration of arginine residues was 12-16 μmol per ml of resin. The swollen L-arginino-Amberlite resin (200 μl) was packed into a plastic mini-column and equilibrated with buffer containing 40 mM Tris HCl, pH 7.5, 250 mM NaCl, 0.5 mM EDTA and 5 mM MgCl2 (buffer A). Approximately 1 ng of ^32P-UTP labeled TAR RNA in buffer A was loaded on the column. The column was eluted 3 to 5 times with 400 μl portions of buffer A, until no radioactivity was detected in the eluent. […] Each of the test compounds was dissolved in buffer A and passed through the column in 300 μl portions. Radioactivity of the eluates was determined by scintillation counting on a LS 1701 “Bruker” counter. CE50 values, the concentrations of inhibitors eluting 50% of the radioactive material from the column, were determined.

## YKKKRKKKKKA [Tat R52 peptide, Tat-derived model undeca peptide, containing a single arginine moiety at position 52 of native Tat protein, in the strand of lysines, reference compound]
TAR RNA [1]
  CD50: 6 to 12 nM
TAR RNA [2]
  concentration giving effective protection of TAR: 2 µM
TAR RNA [3]; TAR RNA 6 nM
  CD50: 35 nM
TAR RNA [3]; TAR RNA 12 nM
  CD50: 75 nM
TAR RNA [3]; TAR RNA 20 nM
  CD50: 200 nM
TAR RNA [3]
  effect of ten-fold excess of yeast tRNA on complex formation with TAR: do not inhibit the binding
TAR RNA [3]; listed as R52
  effect of ten-fold excess of yeast tRNA on complex formation with TAR: did not inhibit complex formation
TAR RNA [4]
  CE50: 0.5 mM
